Assay results published in patent publication US12459951B2, “Compounds that interact with RAS superfamily proteins for treatment of cancers, inflammatory diseases, rasopathies, and fibrotic disease” (SHY Therapeutics, LLC, priority 2022, dated 2025).

How the values were obtained:
Rheb = biological target: T1, Rheb (Homo sapiens, UniProt Q15382); assay: Rheb GTP Binding Domain Inhibition Assay; conditions: read-out: Rheb: % inh.
T1 construct: made in house
Outline: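 His-tagged cdc42 or Rheb (10–30 μg/mL) bound to nickel plates, then exposed to compound (20 μM, or serial dilutions for IC50) in 1% DMSO for 3 h at room temperature, ±Sos during final hour. Cy3- or Cy5-GTP (100 nM) added for 45 min; bound labelled GTP read by fluorescence after washes.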

[1] = Kinetic Solubility Assay in pH 7.4 Buffer + 2% DMSO; assay type: physicochemical; conditions: phosphate-buffered saline pH 7.4 with 2% DMSO, aqueous buffer, kinetic from dmso stock, 25° C., two hours
Outline: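 Compound from 20 mM DMSO stock diluted to nominal 400 μM in PBS pH 7.4 with 2% DMSO, in duplicate, shaken 2 h at 25° C., then filtered. Filtrate quantified by UV absorbance (230-550 nm) against 10-200 μM calibration curves; effective range ~2-400 μM.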

MAPK p38 phosphorylation = assay: MAPK p38 Activation Assay (western blot), Panc-1; assay type: cell-based, human; conditions: at 10 μM, Panc-1 pancreatic cancer cell line; starred symbols = activation
Outline: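 Panc-1 cells (KRas G12D) were treated with compound for 6 h at 37 °C, at 10 μM or as serial dilutions for IC50, with 0.3% DMSO. Method 1 used overnight serum-starved cells (0.5% FBS) stimulated with 1.5 ng/ml EGF for 15 min; Method 2 used unstimulated cells in 10% FBS. Phospho-p38 (Thr180/Tyr182) was detected by western blot.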

T1 sequence (Q15382 whole entry, the tested form may be a part): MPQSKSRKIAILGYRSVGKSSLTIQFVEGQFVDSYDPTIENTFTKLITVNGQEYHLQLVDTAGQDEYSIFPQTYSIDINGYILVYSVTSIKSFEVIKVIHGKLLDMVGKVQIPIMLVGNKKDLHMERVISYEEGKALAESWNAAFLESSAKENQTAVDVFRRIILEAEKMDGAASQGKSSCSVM

| SMILES | inhibition at 20 µM (Rheb) [%] | solubility at 2 h [1] [µM] | % inh of MAPK p38 in Panc-1 (MAPK p38 phosphorylation) |
| --- | --- | --- | --- |
| Cc1c(-c2ccn(C(C)C)n2)cn2nc(-c3nccn3C)nc(Nc3ccncn3)c12 [Compound 55, 6-(1-Isopropyl-1H-pyrazol-3-yl)-5-methyl-2-(1-methyl-1H-imidazol-2-yl)-N-(pyrimidin-4-yl)pyrrolo[2,1-f][1,2,4]triazin-4-amine] | 76 to 100 | 10 to 30 | H* (H* ≥ 100% activation) |
| Cc1c(-c2ccn(C(C)C)n2)cn2nc(-c3nccn3C)nc(Nc3ccccn3)c12 [Compound 57, 6-(1-Isopropyl-1H-pyrazol-3-yl)-5-methyl-2-(1-methyl-1H-imidazol-2-yl)-N-(pyridin-2-yl)pyrrolo[2,1-f][1,2,4]triazin-4-amine] | 76 to 100 | 10 to 30 | E* (E* = 1-30% activation) |
| Cc1c(-c2ccn(C(C)C)n2)cn2nc(-c3nccn3C)nc(Nc3cnccn3)c12 [Compound 62, 6-(1-Isopropyl-1H-pyrazol-3-yl)-5-methyl-2-(1-methyl-1H-imidazol-2-yl)-N-(pyrazin-2-yl)pyrrolo[2,1-f][1,2,4]triazin-4-amine] | 0 | < 10 | H* (H* ≥ 100% activation) |
| COc1cc(Nc2nc(-c3nccn3C)nn3cc(-c4ccn(C)n4)c(C)c23)ncn1 [Compound 63, N-(6-Methoxypyrimidin-4-yl)-5-methyl-2-(1-methyl-1H-imidazol-2-yl)-6-(1-methyl-1H-pyrazol-3-yl)pyrrolo[2,1-f][1,2,4]triazin-4-amine] | 50 to 75 | < 10 | H* (H* ≥ 100% activation) |
| Cc1c(-c2ccn(C(C)C)n2)cn2nc(-c3nccn3C)nc(Nc3nnco3)c12 [Compound 59, N-(6-(1-Isopropyl-1H-pyrazol-3-yl)-5-methyl-2-(1-methyl-1H-imidazol-2-yl)pyrrolo[2,1-f][1,2,4]triazin-4-yl)-1,3,4-oxadiazol-2-amine] | 50 to 75 | < 10 | H* (H* ≥ 100% activation) |
| Cc1cc(Nc2nc(-c3nccn3C)nn3cc(-c4ccn(C)n4)c(C)c23)n[nH]1 [Compound 255, 5-Methyl-2-(1-methyl-1H-imidazol-2-yl)-6-(1-methyl-1H-pyrazol-3-yl)-N-(5-methyl-1H-pyrazol-3-yl)pyrrolo[2,1-f][1,2,4]triazin-4-amine] | – | > 30 | – |
| Cc1c(-c2ccn(C)n2)cn2nc(-c3nccn3C)nc(Nc3cc(C(C)C)[nH]n3)c12 [Compound 268, N-(5-Isopropyl-1H-pyrazol-3-yl)-5-methyl-2-(1-methyl-1H-imidazol-2-yl)-6-(1-methyl-1H-pyrazol-3-yl)pyrrolo[2,1-f][1,2,4]triazin-4-amine] | – | < 10 | – |
| Cc1c(-c2ccn(C(C)C)n2)cn2nc(-c3nccn3C)nc(Nc3ncccn3)c12 [Compound 54, 6-(1-Isopropyl-1H-pyrazol-3-yl)-5-methyl-2-(1-methyl-1H-imidazol-2-yl)-N-(pyrimidin-2-yl)pyrrolo[2,1-f][1,2,4]triazin-4-amine] | 76 to 100 | < 10 | H* (H* ≥ 100% activation) |
| COc1ccnc(Nc2nc(-c3nccn3C)nn3cc(-c4ccn(C(C)C)n4)c(C)c23)n1 [Compound 53, 6-(1-Isopropyl-1H-pyrazol-3-yl)-N-(4-methoxypyrimidin-2-yl)-5-methyl-2-(1-methyl-1H-imidazol-2-yl)pyrrolo[2,1-f][1,2,4]triazin-4-amine] | 76 to 100 | 10 to 30 | H* (H* ≥ 100% activation) |
| Cc1c(-c2ccn(C)n2)cn2nc(-c3nccn3C)nc(Nc3cc(-c4ccccn4)[nH]n3)c12 [Compound 265, 5-Methyl-2-(1-methyl-1H-imidazol-2-yl)-6-(1-methyl-1H-pyrazol-3-yl)-N-(5-(pyridin-2-yl)-1H-pyrazol-3-yl)pyrrolo[2,1-f][1,2,4]triazin-4-amine] | – | < 10 | – |
| Cc1[nH]nc(Nc2nc(-c3nccn3C)nn3cc(-c4ccn(C)n4)c(C)c23)c1C [Compound 267, N-(4,5-Dimethyl-1H-pyrazol-3-yl)-5-methyl-2-(1-methyl-1H-imidazol-2-yl)-6-(1-methyl-1H-pyrazol-3-yl)pyrrolo[2,1-f][1,2,4]triazin-4-amine] | – | 10 to 30 | – |
| COc1cc(-c2cn3nc(-c4nccn4C)nc(Nc4cc(OC)ncn4)c3c2C)ccn1 [Compound 50, 6-(2-Methoxypyridin-4-yl)-N-(6-methoxypyrimidin-4-yl)-5-methyl-2-(1-methyl-1H-imidazol-2-yl)pyrrolo[2,1-f][1,2,4]triazin-4-amine] | 26 to 49 | < 10 | – |
| COc1ccnc(Nc2nc(-c3nccn3C)nn3cc(-c4ccn(C(C)C)n4)c(C)c23)c1 [Compound 58, 6-(1-Isopropyl-1H-pyrazol-3-yl)-N-(4-methoxypyridin-2-yl)-5-methyl-2-(1-methyl-1H-imidazol-2-yl)pyrrolo[2,1-f][1,2,4]triazin-4-amine] | 76 to 100 | 10 to 30 | G* (G* = 75-99% activation) |
